Results published in patent US8063041B2 (Wyeth LLC, priority 2009, dated 2011).
Values belong to the compound of their own block, whether it stands above or below them.

Legend:
[1] = Solubility of bazedoxifene acetate forms (dynamic dissolution method using Crystal-16 and HPLC method); assay type: physicochemical; settings: for solubility compared with Form B: crystallization solvent
Procedure: The profiles of the temperature and magnetic stirring speed for each row may be independently adjusted. The turbidity of each vial was monitored and plotted with the temperature profiles to determine dissolution and precipitation points of solids. A pre-weighed amount of solid and solvent were mixed together in clear glass vials, and were heated slowly (at 0.2° C./min). The dissolution temperature was recorded. The concentration of the solution (calculated based on the weight of solid and solvent) was treated as the saturation concentration at the recorded temperature, and solubility was calculated based on this concentration. […] The suspension was filtered after stirring for 30 minutes and the solution concentration was analyzed by HPLC. The measured solubility data for the two methods are plotted in FIGS. 4 and 5.

[2] = system: MCF-7 cell line (human breast cancer cell line); settings: cited from earlier work
ovariectomized rat = ovariectomized rat model of osteopenia; cited from earlier work
uterine response = settings: preclinical models of uterine stimulation; cited from earlier work

- solubility compared with Form A ([1]; at 0-60° C.): less soluble
- solubility compared with Form B ([1]; above about 30° C.): slightly higher than that of Form B
- solubility compared with Form B ([1]; below about 30° C.): very similar to Form B solubility
SMILES: Cc1c(-c2ccc(O)cc2)n(Cc2ccc(OCCN3CCCCCC3)cc2)c2ccc(O)cc12 [Form D, 1-[4-(2-azepan-1-yl-ethoxy)-benzyl]-2-(4-hydroxy-phenyl)-3-methyl-1H-indol-5-ol acetic acid]

- solubility compared with other forms ([1]; all conditions studied, crystallization solvent and slurry test solvent): higher than Forms B and D
SMILES: CC(=O)O.Cc1c(-c2ccc(O)cc2)n(Cc2ccc(OCCN3CCCCCC3)cc2)c2ccc(O)cc12 [Form A]

SMILES: Cc1c(-c2ccc(O)cc2)n(Cc2ccc(OCCN3CCCCCC3)cc2)c2ccc(O)cc12 [bazedoxifene acetate, 1-[4-(2-azepan-1-yl-ethoxy)-benzyl]-2-(4-hydroxy-phenyl)-3-methyl-1H-indol-5-ol acetic acid]
- estrogen agonist/antagonist behaviour [2]: behaves as an estrogen antagonist
- preventing bone loss (ovariectomized rat): estrogen agonist-like effect
- reducing cholesterol (ovariectomized rat): estrogen agonist-like effect
- stimulation of uterine response (uterine response): little or no stimulation
